{
  "source": "paper PMC7206119",
  "about": "“RIP1 inhibition blocks inflammatory diseases but not tumor growth or metastases” (Cell Death and Differentiation, 2019)",
  "experiment_in_all_cases": "biochemical",
  "set-up_in_all_cases": "DiscoverX kinase panel, active-site competition binding (KINOMEscan type), percent of control at one concentration",
  "conditions_in_all_cases": "competition binding, percent of control",
  "key": {"[1]": {"target": "T1, DCAMKL2 (Homo sapiens, UniProt Q8N568)", "T1 construct": "gene DCLK2", "source_text": "(§1) To investigate the potential therapeutic benefit of inhibiting RIP1, we developed GNE684 or (S)-N-((S)-7-methoxy-1-methyl-2-oxo-2,3,4,5-tetrahydro-1H-pyrido[3,4-b]azepin-3-yl)-5-phenyl-6,7-dihydro-5H-pyrrolo[1,2-b][1,2,4]triazole-2-carboxamide with cross-species potency against RIP1, exquisite kinase selectivity, and favorable pharmacological properties (Fig. 1a–h, S1, Tables S1 and S2, SI file 1). […] (Fig. 1b, S1, and Table S1). […] GNE684 inhibited human RIP1 potently in vitro, and mouse and rat RIP1 with slightly less potency (Fig. 1d). Accordingly, it inhibited TNF-induced necroptosis in human HT-29, mouse L929, or rat H9c2 cells (Fig. 1e). The cellular potency of GNE684 was confirmed in a human whole blood assay using TBZ (TNF, IAP antagonist BV6, and pan-caspase inhibitor zVAD) or LZ (LPS plus zVAD) to trigger necroptosis and the release of IL-1α and IL-1β (Fig. 1f)."}, "[2]": {"target": "GSK3B (Homo sapiens, UniProt P49841)", "source_text": "as §1"}, "[3]": {"target": "AKT3 (Homo sapiens, UniProt Q9Y243)", "sequence (Q9Y243 whole entry)": "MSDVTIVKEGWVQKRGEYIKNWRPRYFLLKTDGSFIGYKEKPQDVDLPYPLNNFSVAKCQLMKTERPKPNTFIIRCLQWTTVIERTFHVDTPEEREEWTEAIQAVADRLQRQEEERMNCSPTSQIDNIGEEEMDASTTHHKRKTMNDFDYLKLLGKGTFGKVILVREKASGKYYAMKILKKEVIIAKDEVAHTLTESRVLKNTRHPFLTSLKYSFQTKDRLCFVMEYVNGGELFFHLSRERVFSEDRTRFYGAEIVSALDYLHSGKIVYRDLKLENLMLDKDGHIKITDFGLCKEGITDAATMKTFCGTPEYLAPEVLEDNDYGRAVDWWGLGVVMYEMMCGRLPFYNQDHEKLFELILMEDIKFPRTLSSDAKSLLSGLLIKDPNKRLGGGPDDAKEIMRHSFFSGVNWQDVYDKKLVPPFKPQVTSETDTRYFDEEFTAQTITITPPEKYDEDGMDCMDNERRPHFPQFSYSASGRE", "source_text": "as §1"}, "[4]": {"target": "MKNK1 (Homo sapiens, UniProt Q9BUB5)", "sequence (Q9BUB5 whole entry)": "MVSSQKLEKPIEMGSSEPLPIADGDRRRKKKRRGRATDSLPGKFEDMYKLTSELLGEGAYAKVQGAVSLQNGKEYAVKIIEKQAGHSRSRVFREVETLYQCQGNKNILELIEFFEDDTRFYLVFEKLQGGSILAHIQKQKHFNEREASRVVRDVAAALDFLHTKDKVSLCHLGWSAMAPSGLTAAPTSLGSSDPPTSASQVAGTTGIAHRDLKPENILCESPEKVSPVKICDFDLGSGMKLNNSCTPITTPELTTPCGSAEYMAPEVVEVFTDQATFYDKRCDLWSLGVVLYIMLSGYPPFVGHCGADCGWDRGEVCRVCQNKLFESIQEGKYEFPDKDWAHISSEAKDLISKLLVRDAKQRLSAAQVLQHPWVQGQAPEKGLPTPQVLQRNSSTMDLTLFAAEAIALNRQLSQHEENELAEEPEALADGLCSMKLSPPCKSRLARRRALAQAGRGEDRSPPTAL", "source_text": "as §1"}, "[5]": {"target": "T2, PKAC-beta (Homo sapiens, UniProt P22694)", "T2 construct": "gene PRKACB", "source_text": "as §1"}, "[6]": {"target": "T3, RSK2(Kin.Dom.1-N-terminal) (Homo sapiens, UniProt P51812)", "T3 construct": "gene RPS6KA3; Kin.Dom.1-N-terminal", "source_text": "as §1"}, "[7]": {"target": "T4, MLK3 (Homo sapiens, UniProt Q16584)", "T4 construct": "gene MAP3K11", "source_text": "as §1"}, "[8]": {"target": "T5, SGK (Homo sapiens, UniProt O00141)", "T5 construct": "gene SGK1", "source_text": "as §1"}, "[9]": {"target": "GRK2 (Homo sapiens, UniProt P25098)", "sequence (P25098 whole entry)": "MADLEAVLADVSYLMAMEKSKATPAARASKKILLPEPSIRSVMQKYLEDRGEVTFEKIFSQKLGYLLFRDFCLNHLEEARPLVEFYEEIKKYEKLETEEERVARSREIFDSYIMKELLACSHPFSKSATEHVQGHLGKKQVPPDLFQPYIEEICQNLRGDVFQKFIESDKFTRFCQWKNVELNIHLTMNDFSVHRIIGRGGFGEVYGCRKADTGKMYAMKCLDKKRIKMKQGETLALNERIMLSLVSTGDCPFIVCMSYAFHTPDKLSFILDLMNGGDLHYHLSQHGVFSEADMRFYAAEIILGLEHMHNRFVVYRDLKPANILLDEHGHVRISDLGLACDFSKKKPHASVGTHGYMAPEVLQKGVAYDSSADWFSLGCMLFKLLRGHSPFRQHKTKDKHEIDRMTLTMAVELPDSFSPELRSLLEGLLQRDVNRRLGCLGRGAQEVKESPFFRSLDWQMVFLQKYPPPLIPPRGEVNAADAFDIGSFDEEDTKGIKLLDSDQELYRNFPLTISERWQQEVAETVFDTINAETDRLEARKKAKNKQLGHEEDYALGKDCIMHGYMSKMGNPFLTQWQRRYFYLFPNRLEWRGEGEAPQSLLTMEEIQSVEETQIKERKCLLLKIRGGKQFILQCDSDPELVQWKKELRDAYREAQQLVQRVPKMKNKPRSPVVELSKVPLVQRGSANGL", "source_text": "as §1"}, "[10]": {"target": "EPHA6 (Homo sapiens, UniProt Q9UF33)", "source_text": "as §1"}, "[11]": {"target": "T6, MEK6 (Homo sapiens, UniProt P52564)", "T6 construct": "gene MAP2K6", "source_text": "as §1"}, "[12]": {"target": "SRPK1 (Homo sapiens, UniProt Q96SB4)", "source_text": "as §1"}, "[13]": {"target": "STK16 (Homo sapiens, UniProt O75716)", "sequence (O75716 whole entry)": "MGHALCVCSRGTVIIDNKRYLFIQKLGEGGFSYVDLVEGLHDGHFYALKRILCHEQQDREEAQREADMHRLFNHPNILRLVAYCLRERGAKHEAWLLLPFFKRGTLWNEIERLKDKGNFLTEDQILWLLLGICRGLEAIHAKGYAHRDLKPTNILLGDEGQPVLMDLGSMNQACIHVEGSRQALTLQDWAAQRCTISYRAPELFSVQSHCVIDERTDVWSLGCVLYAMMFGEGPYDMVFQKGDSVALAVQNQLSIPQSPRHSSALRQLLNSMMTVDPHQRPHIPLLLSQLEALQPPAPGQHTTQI", "source_text": "as §1"}, "[14]": {"target": "HIPK4 (Homo sapiens, UniProt Q8NE63)", "sequence (Q8NE63 whole entry)": "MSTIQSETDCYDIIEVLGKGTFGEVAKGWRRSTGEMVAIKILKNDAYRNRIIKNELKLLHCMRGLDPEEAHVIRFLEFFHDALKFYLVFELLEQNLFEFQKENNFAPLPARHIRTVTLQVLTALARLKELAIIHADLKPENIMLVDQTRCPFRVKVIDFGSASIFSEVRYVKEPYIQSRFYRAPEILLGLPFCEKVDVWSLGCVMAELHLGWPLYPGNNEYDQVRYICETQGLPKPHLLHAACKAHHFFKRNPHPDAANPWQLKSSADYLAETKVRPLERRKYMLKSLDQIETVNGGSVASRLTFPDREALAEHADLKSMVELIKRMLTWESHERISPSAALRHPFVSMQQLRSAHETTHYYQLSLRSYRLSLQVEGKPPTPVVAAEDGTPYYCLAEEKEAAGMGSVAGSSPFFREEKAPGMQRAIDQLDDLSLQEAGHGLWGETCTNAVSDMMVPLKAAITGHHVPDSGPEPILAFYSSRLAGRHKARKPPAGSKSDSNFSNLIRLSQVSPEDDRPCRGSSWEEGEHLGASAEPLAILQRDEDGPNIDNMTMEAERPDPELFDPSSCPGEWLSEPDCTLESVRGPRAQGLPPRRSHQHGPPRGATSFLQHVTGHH", "source_text": "as §1"}, "[15]": {"target": "T7, ABL1(M351T)-phosphorylated (Homo sapiens, UniProt P00519, M351T)", "T7 construct": "phosphorylated", "source_text": "as §1"}, "[16]": {"target": "T8, JNK3 (Homo sapiens, UniProt P53779)", "T8 construct": "gene MAPK10", "source_text": "as §1"}, "[17]": {"target": "T9, ERK8 (Homo sapiens, UniProt Q8TD08)", "T9 construct": "gene MAPK15", "T9 sequence (Q8TD08 whole entry)": "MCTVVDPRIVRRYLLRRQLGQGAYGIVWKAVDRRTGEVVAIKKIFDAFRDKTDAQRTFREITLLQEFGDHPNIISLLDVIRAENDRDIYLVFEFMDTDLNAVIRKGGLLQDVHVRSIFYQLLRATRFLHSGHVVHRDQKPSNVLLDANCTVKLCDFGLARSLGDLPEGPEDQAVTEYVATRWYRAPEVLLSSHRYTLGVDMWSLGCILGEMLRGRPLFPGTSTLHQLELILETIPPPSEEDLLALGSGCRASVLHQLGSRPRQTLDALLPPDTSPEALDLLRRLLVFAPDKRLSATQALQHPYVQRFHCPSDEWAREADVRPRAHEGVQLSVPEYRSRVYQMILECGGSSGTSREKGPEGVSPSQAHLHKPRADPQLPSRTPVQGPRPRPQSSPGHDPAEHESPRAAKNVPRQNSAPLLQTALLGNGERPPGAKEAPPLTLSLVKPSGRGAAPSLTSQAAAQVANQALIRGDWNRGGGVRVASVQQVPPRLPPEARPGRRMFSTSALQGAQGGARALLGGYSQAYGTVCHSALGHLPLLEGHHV", "source_text": "as §1"}, "[18]": {"target": "TNNI3K (Homo sapiens, UniProt Q59H18)", "sequence (Q59H18 whole entry)": "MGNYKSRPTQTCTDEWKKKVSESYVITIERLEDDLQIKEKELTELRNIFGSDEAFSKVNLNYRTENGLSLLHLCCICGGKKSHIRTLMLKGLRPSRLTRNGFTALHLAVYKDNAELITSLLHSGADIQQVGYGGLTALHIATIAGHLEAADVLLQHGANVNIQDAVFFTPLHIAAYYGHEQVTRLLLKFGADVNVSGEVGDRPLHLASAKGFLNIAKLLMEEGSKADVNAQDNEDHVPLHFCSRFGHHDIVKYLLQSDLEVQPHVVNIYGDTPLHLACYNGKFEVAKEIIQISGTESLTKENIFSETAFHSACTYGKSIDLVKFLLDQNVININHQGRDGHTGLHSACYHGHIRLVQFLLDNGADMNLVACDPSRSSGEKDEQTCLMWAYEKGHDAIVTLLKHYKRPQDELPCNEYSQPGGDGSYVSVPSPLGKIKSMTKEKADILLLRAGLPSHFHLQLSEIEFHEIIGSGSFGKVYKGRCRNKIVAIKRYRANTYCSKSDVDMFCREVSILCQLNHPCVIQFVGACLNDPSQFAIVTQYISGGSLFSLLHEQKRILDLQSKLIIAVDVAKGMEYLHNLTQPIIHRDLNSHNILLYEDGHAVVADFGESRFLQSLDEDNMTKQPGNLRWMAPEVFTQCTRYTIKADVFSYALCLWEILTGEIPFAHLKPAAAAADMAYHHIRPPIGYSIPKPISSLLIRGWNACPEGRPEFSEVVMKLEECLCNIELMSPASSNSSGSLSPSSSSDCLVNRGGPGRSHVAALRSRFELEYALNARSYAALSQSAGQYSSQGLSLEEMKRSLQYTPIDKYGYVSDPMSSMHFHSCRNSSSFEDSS", "source_text": "as §1"}, "[19]": {"target": "T10, p38-beta (Homo sapiens, UniProt Q15759)", "T10 construct": "gene MAPK11", "T10 sequence (Q15759 whole entry)": "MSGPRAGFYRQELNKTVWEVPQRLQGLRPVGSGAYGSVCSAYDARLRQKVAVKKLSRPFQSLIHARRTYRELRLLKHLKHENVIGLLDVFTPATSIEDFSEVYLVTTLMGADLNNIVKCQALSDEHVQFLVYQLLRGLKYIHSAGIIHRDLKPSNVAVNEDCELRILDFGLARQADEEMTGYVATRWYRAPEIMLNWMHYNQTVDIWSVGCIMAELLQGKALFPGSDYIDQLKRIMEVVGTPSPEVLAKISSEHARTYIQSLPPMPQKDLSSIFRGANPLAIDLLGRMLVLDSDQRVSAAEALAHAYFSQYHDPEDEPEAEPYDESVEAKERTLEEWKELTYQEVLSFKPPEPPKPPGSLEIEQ", "source_text": "as §1"}, "[20]": {"target": "T11, RPS6KA5(Kin.Dom.1-N-terminal) (Homo sapiens, UniProt O75582)", "T11 construct": "Kin.Dom.1-N-terminal", "source_text": "as §1"}, "[21]": {"target": "LCK (Homo sapiens, UniProt P06239)", "sequence (P06239 whole entry)": "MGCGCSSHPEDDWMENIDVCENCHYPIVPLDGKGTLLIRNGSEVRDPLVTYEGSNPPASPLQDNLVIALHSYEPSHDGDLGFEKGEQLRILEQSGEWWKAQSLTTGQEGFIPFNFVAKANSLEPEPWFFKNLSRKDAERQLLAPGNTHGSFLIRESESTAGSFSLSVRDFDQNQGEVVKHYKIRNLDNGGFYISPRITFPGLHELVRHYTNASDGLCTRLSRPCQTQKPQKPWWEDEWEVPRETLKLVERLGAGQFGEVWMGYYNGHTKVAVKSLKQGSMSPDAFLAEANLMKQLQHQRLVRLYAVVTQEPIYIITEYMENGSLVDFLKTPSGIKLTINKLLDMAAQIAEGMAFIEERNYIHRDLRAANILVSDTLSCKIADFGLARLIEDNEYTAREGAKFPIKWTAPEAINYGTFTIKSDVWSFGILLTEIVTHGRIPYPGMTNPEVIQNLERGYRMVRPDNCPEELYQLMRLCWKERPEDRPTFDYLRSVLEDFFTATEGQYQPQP", "source_text": "as §1"}},
  "data": [
    {"smiles": "COc1cc2c(cn1)N(C)C(=O)[C@@H](NC(=O)c1nc3n(n1)[C@H](c1ccccc1)CC3)CC2", "note": "[GNE684, (S)-N-((S)-7-methoxy-1-methyl-2-oxo-2,3,4,5-tetrahydro-1H-pyrido[3,4-b]azepin-3-yl)-5-phenyl-6,7-dihydro-5H-pyrrolo[1,2-b][1,2,4]triazole-2-carboxamide]", "values": [
      {"measurement": "remaining binding at 10 µM", "setting": "[1]", "result": 95, "unit": "%"},
      {"measurement": "remaining binding at 10 µM", "setting": "[2]", "result": 96, "unit": "%"},
      {"measurement": "remaining binding at 10 µM", "setting": "[3]", "result": 75, "unit": "%"},
      {"measurement": "remaining binding at 10 µM", "setting": "[4]", "result": 100, "unit": "%"},
      {"measurement": "remaining binding at 10 µM", "setting": "[5]", "result": 72, "unit": "%"},
      {"measurement": "remaining binding at 10 µM", "setting": "[6]", "result": 65, "unit": "%"},
      {"measurement": "remaining binding at 10 µM", "setting": "[7]", "result": 100, "unit": "%"},
      {"measurement": "remaining binding at 10 µM", "setting": "[8]", "result": 100, "unit": "%"},
      {"measurement": "remaining binding at 10 µM", "setting": "[9]", "result": 94, "unit": "%"},
      {"measurement": "remaining binding at 10 µM", "setting": "[10]", "result": 100, "unit": "%"},
      {"measurement": "remaining binding at 10 µM", "setting": "[11]", "result": 100, "unit": "%"},
      {"measurement": "remaining binding at 10 µM", "setting": "[12]", "result": 93, "unit": "%"},
      {"measurement": "remaining binding at 10 µM", "setting": "[13]", "result": 100, "unit": "%"},
      {"measurement": "remaining binding at 10 µM", "setting": "[14]", "result": 100, "unit": "%"},
      {"measurement": "remaining binding at 10 µM", "setting": "[15]", "result": 100, "unit": "%"},
      {"measurement": "remaining binding at 10 µM", "setting": "[16]", "result": 98, "unit": "%"},
      {"measurement": "remaining binding at 10 µM", "setting": "[17]", "result": 85, "unit": "%"},
      {"measurement": "remaining binding at 10 µM", "setting": "[18]", "result": 100, "unit": "%"},
      {"measurement": "remaining binding at 10 µM", "setting": "[19]", "result": 97, "unit": "%"},
      {"measurement": "remaining binding at 10 µM", "setting": "[20]", "result": 84, "unit": "%"},
      {"measurement": "remaining binding at 10 µM", "setting": "[21]", "result": 86, "unit": "%"}
    ]}
  ]
}
